The results in this text go back to article PMC9645390, “Amphiphilic stilbene derivatives attenuate the neurotoxicity of soluble Aβ42 oligomers by controlling their interactions with cell membranes” (Chemical Science, 2022).

For data set [1], the target named is T1, Aβ plaques in 5xFAD mice brain sections (Homo sapiens, UniProt P05067).
T1 construct: aggregated Aβ species were commonly observed in brain sections from 5xFAD transgenic mice; tissue Jackson Laboratories; host or cells: brain sections of 9-month-old 5xFAD transgenic mice
In words: Fluorescence imaging of 5xFAD mouse brain sections, colocalization with Congo Red. To be noted: 9-month-old 5xFAD brain sections; compound 5 μM, Congo red 2.5 μM. On the procedure:
In order to confirm that the compounds can also bind to native Aβ species, brain sections collected from 9-month-old 5xFAD transgenic mice have been employed in the fluorescence imaging studies. […] The brain sections were first incubated with our compounds, followed by Congo Red (CR), which is a well-established fluorescent probe that can bind to Aβ plaques.[34] The treated brain sections were then imaged using fluorescence microscope. […] Immunostaining with the CF594-conjugated HJ 3.4 antibody (CF594-HJ3.4) was also performed to confirm that these six compounds can bind to Aβ species specifically in the brain sections (Fig. 5). Moreover, the log D values of the compounds were also measured by octanol-PBS partition assays.[35]
Fig. 4 Fluorescence microscopy images of 5xFAD mice brain sections co-incubated with amphiphilic compounds (top), Congo red (middle) and merged images (bottom, along with the Parson's correlation coefficients R). Concentrations: [amphiphilic compounds] = 5 μM, [Congo red] = 2.5 μM; scale bar: 125 μm. TEXT PRINTED IN THE PICTURE: ZY-5-MT: Merged R= 0.84 | ZY-12-DT: Merged R= 0.52 | ZY-12-OMe: Merged R= 0.77 | ZY-15-OMe: Merged R= 0.77 | ZY-17-DT: Merged R= 0.77 | ZY-17-OMe: Merged R= 0.72 […]
Histological Staining of 5×FAD Mice Brain Sections
5xFAD transgenic mice brain sections were blocked with bovine serum albumin (2% BSA in PBS, pH 7.4, 10 min). Then the mice brain sections were transferred to a PBS solution of the compound and incubated for 1 h. After which, the brain sections were transferred to a PBS solution of Congo Red or antibody HJ 3.4 (Professor David Holtzman, 1 μg/ml) and incubated for another 1 h. Then, the brain sections were treated with BSA again (5 min) followed by washing with PBS (3 × 2 min), DI water (3 × 2 min). Finally, the mice brain sections were mounted with non-fluorescent mounting media, and the images were obtained by using EVOS FL Auto 2. ImageJ Fiji program was used for colocalization analysis and determination of the Pearson’s correlation coefficient. The primary

A short description of data set [2]: Alamar Blue cytotoxicity assay in N2a cells. The settings on record: mouse, N2a (Neuro2A) neuroblastoma cells, up to 10 μM, 40 h, read-out: cell viability. In kind it is cell-based, mouse. On the procedure:
After confirming these amphiphilic compounds can bind to Aβ species both in vitro and ex vivo, we next investigated whether these compounds could attenuate the toxicity of the Cu–Aβ species, as the Cu^2+ ions were reported to promote the formation of neurotoxic soluble Aβ42 oligomers.[45,46] Firstly, the Alamar Blue cell viability assay was used to measure the cytotoxicity of the compounds at different concentrations ranging from 20 μM to 2 μM in mouse neuroblastoma N2a cells (Fig. 8). […] Considering its high binding affinity to both Aβ fibrils and oligomers, we also further tested its ability to alleviate Cu^2+–Aβ42-induced toxicity. […] The underlying mechanism is unclear, but we propose that these compounds might perform similarly to the toxic oligomers that bind to some cell membrane receptors or insert into the membrane lipids to form porous channels.
Alamar Blue assay was chosen for the cytotoxicity studies.3 Mouse neuroblastoma Neuro2A (N2A) cells were grown with DMEM/10% FBS in a petri dish at 37 °C in a humidified atmosphere with 5% CO2. Then N2A cells were seeded in a 96-well plate (1.0 × 10^4/well). After 24 h incubation, cell media was changed to DMEM/N-2, and N2A cells were incubated for another 1 h. Then the cells were treated with different concentrations of compounds for 40 h, Alamar Blue solution (10 μL) was added, and the cells were incubated for another 90 min at 37 °C. The fluorescence intensity of each well was measured at 590 nm (excitation wavelength = 560 nm).
(§1) For the Cu2+-Aβ-induced toxicity studies, cells were treated monomeric Aβ42, Cu2+, monomeric Aβ42 + Cu2+, and monomeric Aβ42 + Cu2+ + compounds, monomeric Aβ42 + Cu2+ + copper chelators (Me2HTACN or Me3TACN), respectively. After 40 h incubation, Alamar Blue solution (10 μL) was added, and the cells were incubated for another 90 min at 37 °C. The fluorescence intensity of each well was measured at 590 nm (excitation wavelength = 560 nm). […]

The subject of data set [3] is Cu2+–Aβ42 species in Neuro2A cells. The data set can be described thus: Cu2+-Aβ42-induced toxicity in Neuro2A cells (Alamar Blue). In kind it is cell-based, mouse. To be noted: [Aβ42] = [Cu2+] = 40 μM, compound 10 μM (ZY-12-OMe 5 μM), 40 h. On the procedure:
As mentioned above, compounds that are not cytotoxic at 10 μM, including ZY-12-MT, ZY-15-MT, ZY-15-OMe, ZY-17-MT, ZY-5-MT, ZY-5-DT, ZY-5-OMe, and ZY-12-OMe, were chosen for this study. Firstly, during the control studies, we observed that monomeric Aβ42 led to negligible neurotoxicity. Nevertheless, in the presence of both Cu^2+ and monomeric Aβ42, there was a significant cell death, which is likely due to the Cu^2+ associated neurotoxic Aβ42 oligomers formation.[46] […] According to the docking results, ZY-12-MT, ZY-15-OMe, ZY-15-MT, and ZY-5-OMe interact with Aβ42 tetramers mainly through residues His6, Asp7, Tyr10 (via hydrogen bonds), and Tyr10 (via π–π interactions). Some reports have also shown that His6, Asp7, and Tyr10 are potentially involved in the Cu–Aβ interactions, which explains why the compounds are able to attenuate the Cu–Aβ toxicity.[48]
Fig. 9 Cell viability results upon incubation of Neuro2A cells with monomeric Aβ42 in the presence or absence of metal ions and amphiphilic compounds. Concentrations: [Aβ42] = 40 μM, [Cu^2+] = 40 μM, [ZY-12-MT] = [ZY-15-OMe] = [ZY-15-MT] = [ZY-17-MT] = [ZY-5-OMe] = [ZY-5-MT] = [ZY-5-DT] = 10 μM, [ZY-12-OMe] = 5 μM. The error bars represent the standard deviation from five independent experiments, and the statistical analysis was evaluated according to one-way ANOVA (*p < 0.05).
Alamar Blue assay was chosen for the cytotoxicity studies.3 Mouse neuroblastoma Neuro2A (N2A) cells were grown with DMEM/10% FBS in a petri dish at 37 °C in a humidified atmosphere with 5% CO2. Then N2A cells were seeded in a 96-well plate (1.0 × 10^4/well). After 24 h incubation, cell media was changed to DMEM/N-2, and N2A cells were incubated for another 1 h. […]
as §1
10. The effect of copper chelators on Cu2+-Aβ42 neurotoxicity
Figure S8. Cell viability results upon incubation of Neuro2A cells with 10 μM copper chelators (Me2HTACN or Me3TACN) in the presence or absence of 40 μM (Aβ42 + Cu2+). The error bars represent the standard deviation from five independent experiments, and the statistical analysis was evaluated according to one-way ANOVA. […]
In general terms: Resazurin is reduced to fluorescent resorufin, in cell work by metabolically active cells.

T1 sequence (P05067 672-713 limits assumed): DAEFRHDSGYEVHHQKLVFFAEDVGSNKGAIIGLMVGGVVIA

As usually defined, the viability is a read-out of living cells in per cent, often relative to untreated cells. For `COc1cc(/C=C/c2ccc(-c3ccc(C=O)cc3)s2)cc(CN2CCN(C)CCN(C)CC2)c1O` [ZY-15-OMe], the “Pearson's correlation coefficient R, colocalization with Congo Red” value in data set [1] was found to be 0.77. Further, the viability at 40 h in data set [2] was over 80%. In addition, the “effect on Cu2+–Aβ42-induced toxicity (cell viability, in words)” value (“effect on Cu2+–Aβ42-induced toxicity” below) in data set [3] is recorded as “could significantly increase cell viability”.
As for `COc1cc(/C=C/c2ccc(-c3ccc(N(C)C)cc3)s2)cc(CN2CCN(C)CCN(C)CC2)c1O` [ZY-5-OMe], in data set [2], the viability at 40 h is over 80%. In data set [3], the “effect on Cu2+–Aβ42-induced toxicity” value is “could significantly increase cell viability”.
Turning to `CN1CCN(C)CCN(Cc2cc(/C=C/c3ccc(-c4ccc(C=O)cc4)s3)ccc2O)CC1` [ZY-15-MT], the viability at 40 h in data set [2] was over 80%. Further, the “effect on Cu2+–Aβ42-induced toxicity” value in data set [3] is listed as “could significantly increase cell viability”.
On the same counts, the results for `CN1CCN(C)CCN(Cc2cc(-c3ccc(/C=C/c4ccc(N(C)C)cc4)s3)ccc2O)CC1` [ZY-12-MT] are over 80% and “could significantly increase cell viability”.
On to `COc1cc(OC)cc(-c2ccc(/C=C/c3cc(CN4CCN(C)CCN(C)CC4)c(O)c(OC)c3)cc2)c1` [ZY-17-OMe], for which the “Pearson's correlation coefficient R, colocalization with Congo Red” value in data set [1] came to 0.72.
Same read-out and setting: then `COc1cc(OC)cc(-c2ccc(/C=C/c3cc(CN4CCN(C)CCN(C)CC4)c(O)c(CN4CCN(C)CCN(C)CC4)c3)cc2)c1` [ZY-17-DT], with 0.77.
